Results published in patent publication US20060276416A1, “Methods and compositions for treating flushing and drug induced weight gain” (Sirtris Pharmaceuticals, Inc., priority 2005, published 2006).

Columns and labels:
C. elegans = C. elegans lifespan assay; assay type: in vivo
Experimental: Thus, the presence of resveratrol in the growth media of C. elegans extends their lifespan.
Bristol N2 (Caenorhabditis Genetics Center) was used as the wild-type strain. The sir-2.1 mutant strain was generated by backcrossing VC 199 (sir-2.1 (ok434)) to N2 four times. Cultures were grown on standard NGM media and maintained on E. coli strain OP50. For the lifespan assays, synchronized animals were transferred to treatment plates as young adults (2 d after hatching, day 0 of assay), and were transferred to fresh treatment plates every 2 days for the first 6 to 8 days of the assay. […] For some lifespan trials, heat-killed OP50 were used as a food source. OP50 cultures were heated to 65° C. for 30 minutes, then pelleted and resuspended in 1/10 volume in S Basal supplemented with 10 mM MgSO4. In all assays, worms were monitored daily for mortality by gently probing with a platinum pick. Assays were performed at 24° C. To assay worm feeding rates, worms at the indicated stages were placed on treatment plates (no FUdR) for 4-5 hours, then videoed for 1 minute using a Pixelink PL-662 camera. The frame rate was slowed and the pumping rate of the pharynx was counted. To assay fecundity, gravid hermaphrodites (5 per plate, raised from synchronized L1s on normal or treatment plates) were allowed to lay eggs on their respective media for 5 hours, and the total number of eggs was counted.

S. cerevisiae = experiment: Yeast replicative lifespan by micro-manipulation; assay type: cell-based
Experimental: Average lifespan for wild type, 22.9 generations, quercetin, 23.4; piceatannol.
Lifespan measurements were performed using PSY316AT MATα as previously described^35. All compounds for lifespan analyses were dissolved in 95% ethanol and plates were dried and used within 24 hours. Prior to lifespan analysis, cells were pre-incubated on their respective media for at least 15 hours. Following transfer to a new plate, cells were equilibrated on the medium for a minimum of 4 hours prior to micro-manipulating them. At least 30 cells were examined per experiment and each experiment was performed at least twice. Statistical significance of lifespan differences was determined using the Wilcoxon rank sum test. Differences are stated to be significant when the confidence is higher than 95%.

## Oc1ccc(/C=C/c2cc(O)cc(O)c2)cc1 [Resveratrol, 3,5,4′-Trihydroxy-trans-stilbene]
C. elegans; sir-2.1 null mutant
  Lifespan extension (in words): did not exhibit a significant lifespan extension
C. elegans; wild-type worms, 100 μM, heat-killed or live E. coli, maximum
  Lifespan extension: up to 15%
S. cerevisiae; glucose-restricted+resveratrol (CR+R)
  Average lifespan: 39.9 generations
S. cerevisiae; growth on resveratrol 10 μM, wild type untreated 21.0
  Average lifespan: 35.7 generations
S. cerevisiae; growth on resveratrol 100 μM, wild type untreated 21.0
  Average lifespan: 29.4 generations
S. cerevisiae; growth on resveratrol 500 μM, wild type untreated 21.0
  Average lifespan: 29.3 generations
S. cerevisiae; pnc1Δ+resveratrol, pnc1Δ 19.2
  Average lifespan: 33.1 generations
S. cerevisiae; sir2Δ+resveratrol, sir2Δ 9.9
  Average lifespan: 10.0 generations
S. cerevisiae; wild type+resveratrol, wild type untreated 19.0
  Average lifespan: 37.8 generations
